Laboratory results reported in ChEMBL document CHEMBL1157121, “Diterpenoids from the feces of Trogopterus xanthipes” (J Nat Prod, 2010).

Columns and labels:
Assay type in all cases: functional, cell-based
Jurkat = assay: Cytotoxicity against human Jurkat cells after 48 hrs by MTT assay
HepG2 = assay: Cytotoxicity against human HepG2 cells after 48 hrs by MTT assay; details: HepG2, 48 h
U-937 = assay: Cytotoxicity against human U937 cells after 48 hrs by MTT assay; details: U-937, 48 h
HL-60 = assay: Cytotoxicity against human HL60 cells after 48 hrs by MTT assay; details: HL-60, 48 h

| Structure (SMILES) | IC50 (Jurkat) [µM] | IC50 (HepG2) [µM] | IC50 (U-937) [µM] | IC50 (HL-60) [µM] |
| --- | --- | --- | --- | --- |
| CC(C)c1cc2c(cc1O)[C@@]1(C)CCCC(C)(C)[C@@H]1CC2 [FERRUGINOL] | 35.1 | > 40 | 19.7 | > 40 |
| CC(C)c1cc2c(cc1O)CC[C@H]1C(C)(C)CCC[C@]21C [SEMPERVIROL] | > 40 | > 40 | > 40 | > 40 |
| C=C[C@]1(C)C[C@]2(O)CC[C@H]3C(C)(C)C(=O)CC[C@]3(C)[C@H]2CC1=O [TROGOPTEROID B] | > 40 | > 40 | > 40 | > 40 |
| CC(C)c1c(O)ccc2c1CC[C@H]1[C@@](C)(CO)C(=O)C=C[C@]21C [TROGOPTEROID G] | > 40 | > 40 | > 40 | > 40 |
| C=C[C@@]1(C)CCC2=C(CC[C@H]3C(C)(C)[C@@H](O)CC[C@]23C)C1 | > 40 | > 40 | > 40 | > 40 |
| CC(C)c1c(O)ccc2c1CC[C@H]1[C@@](C)(CO)C(=O)CC[C@]21C [TROGOPTEROID D] | > 40 | > 40 | > 40 | > 40 |
| CC[C@@]1(O)C(=O)OCc2c1cc1n(c2=O)Cc2cc3cc(O)ccc3nc2-1 [HYDROXYCAMPTOTHECIN] | 0.03 | 3.7 | 0.11 | 0.04 |
| CC(C)c1c(O)ccc2c1CC[C@H]1C(C)(C)[C@@H](O)CC[C@]21C | > 40 | > 40 | 24.7 | 24.3 |
| C=C[C@]1(C)C=C2CC[C@H]3C(C)(C)C(=O)CC[C@]3(C)[C@H]2CC1 | > 40 | > 40 | > 40 | > 40 |
| CC1=C2C=C[C@]34C[C@](C)(CC[C@@H]3[C@@]2(C)CCC1=O)C(=O)O4 [TROGOPTEROID A] | > 40 | > 40 | > 40 | > 40 |
| C=C[C@]1(C)CC2(O)CC[C@H]3C(C)(C)C(=O)C=C[C@]3(C)[C@H]2CC1=O (stereo partly specified) [TROGOPTEROID C] | > 40 | > 40 | > 40 | > 40 |
| CC(C)c1ccc2c(c1O)C[C@@H](O)[C@H]1[C@@](C)(CO)CCC[C@]21C [MACROPHYNIN E] | > 40 | > 40 | > 40 | > 40 |
| C=C[C@]1(C)C=C2CC[C@H]3[C@H](C)C(=O)CC[C@]3(C)[C@H]2CC1 | > 40 | > 40 | > 40 | > 40 |
| C=C[C@@]1(C)CC[C@H]2[C@@](O)(CC[C@H]3[C@@](C)(CO)CCC[C@@]32C)C1 [AKHDARDIOL] | > 40 | > 40 | > 40 | > 40 |
| C=C[C@@]1(C)CC[C@H]2C(=CC[C@H]3C(C)(C)[C@@H](O)CC[C@]23C)C1 [ISOPIMARANE] | > 40 | > 40 | > 40 | > 40 |
| C=C[C@@]1(C)CC[C@H]2C(=CC[C@H]3C(C)(C)C(=O)CC[C@]23C)C1 | > 40 | 32.9 | > 40 | > 40 |
| C=C[C@@]1(C)CC[C@H]2[C@@](O)(CC[C@H]3C(C)(C)C(=O)CC[C@@]32C)C1 | > 40 | > 40 | > 40 | > 40 |
| CC(C)c1cc2c(cc1O)C[C@@H](O)[C@H]1[C@@](C)(CO)CCC[C@]21C [TROGOPTEROID F] | > 40 | > 40 | > 40 | > 40 |
| CC(C)c1c(O)ccc2c1C[C@@H](O)[C@H]1C(C)(C)C(=O)CC[C@]21C [TROGOPTEROID E] | > 40 | > 40 | > 40 | > 40 |
